“Also recorded” adds a separate entry of the source.
Experiments:
HIV-1 93IN017 = assay: HIV infectivity assay in TZM-bl cells; type: cell-based; settings: 93IN017 (clade C, X4); for IC50: Human immunodeficiency virus 1, TZM-bl
VSV-Gpp [1] = type: cell-based, HIV lentivirus pseudotyped with VSV-G
HIV-1 92UG029 = assay: Anti-HIV efficacy in fresh human PBMC (reverse transcriptase activity); type: cell-based; settings: Human immunodeficiency virus 1, PBMC, 168 h; 92UG029 (clade A, X4); PBMCs, MOI = 0.1, 7 days
VSV-Gpp [2] = type: cell-based, HIV lentivirus pseudotyped with VSV-G; remark: listed apart in the source
HCVcc [3] = test system: HCVcc; design: species or system HCV
[4] = test system: Dengue virus (DenV), serotype 2 New Guinea C strain; assay: Dengue virus plaque assay on Vero cells; type: cell-based; settings: 300 μM PD
HIV-1 RU132 = assay: HIV infectivity assay in TZM-bl cells; type: cell-based; settings: RU132 (clade G, R5); for IC50: Human immunodeficiency virus 1, TZM-bl
HIV-1 98IN022 = assay: Anti-HIV efficacy in fresh human PBMC (reverse transcriptase activity); type: cell-based; settings: Human immunodeficiency virus 1, PBMC, 168 h; 98IN022 (clade C, R5); PBMCs, MOI = 0.1, 7 days
[5] = test system: pseudotyped NL4.3 Env-eGFP/gp160 Env virus; assay: HIV-1 cell-to-cell transfer assay (DC to Jurkat T cells); type: cell-based; settings: 10 μM PD added to DC 2 h after virus, washed after 2 h
VSV-Gpp [6] = type: physicochemical, HIV lentivirus pseudotyped with VSV-G
VSV-Gpp, HIVpp = type: cell-based, HIV pseudotyped lentiviruses
HIV-1 (R5 JR-CSF) = assay: Antiviral effect of PD before, during and after HIV-1 exposure (TZM-bl); type: cell-based
[7] = test system: freshly activated human PBMC; assay: Compound cytotoxicity in uninfected PBMC (MTS assay); settings: freshly activated PBMCs, uninfected plates, MTS assay, 7 days
[8] = as above; settings: human
SIVmac251 32H = assay: SIV infectivity assay in TZM-bl cells; type: cell-based; settings: Simian immunodeficiency virus
HIV-1 93BR029 = assay: microbe, parasite or virus in culture; type: cell-based; settings: 93BR029 (clade F, R5); for IC50: Human immunodeficiency virus 1, TZM-bl
HIV-1 93TH053 = assay: HIV infectivity assay in TZM-bl cells; type: cell-based; settings: 93TH053 (clade E, X4); for IC50: Human immunodeficiency virus 1, TZM-bl
HIV-1 92TH006 = assay: HIV infectivity assay in TZM-bl cells; type: cell-based; settings: 92TH006 (clade E, R5); for IC50: Human immunodeficiency virus 1, TZM-bl
HIV-1 93BR020 = assay: HIV infectivity assay in TZM-bl cells; type: cell-based; settings: 93BR020 (clade F, X4); for IC50: Human immunodeficiency virus 1, TZM-bl
HCVcc [9] = assay: HCVcc cell attachment assay; type: cell-based, HCV; settings: 300 μM PD, 37° C., 90 min; cell-bound viral RNA by qRT-PCR
HIV-1 92RW021 = assay: HIV infectivity assay in TZM-bl cells; type: cell-based; settings: 92RW021 (clade A, R5); for IC50: Human immunodeficiency virus 1, TZM-bl

For `N=C1Sc2ccccc2C2=NCCCN12` [PD, PD 404,182], the “IC50 (DMEM; IC90 per footnote)” value (HIV-1 93IN017; PD in DMEM + 10% FBS) was 1900 ± 200 nM, the “IC50 (Cervical Fluid; IC90 per footnote)” value (HIV-1 93IN017; PD in cervical fluids) was 2400 ± 200 nM and the “IC50 (Seminal Plasma; IC90 per footnote)” value (HIV-1 93IN017; PD in seminal plasma) was 2090 ± 190 nM. It also gave an IC50 (HIV-1 93IN017; PD in DMEM + 10% FBS) of 400 nM, an IC50 (HIV-1 93IN017; PD in cervical fluids) of 700 nM and an IC50 (HIV-1 93IN017; PD in seminal plasma) of 450 nM. The “reversal of PD's antiviral effect by liposomes” value (VSV-Gpp [1]) was “not able to reverse PD's antiviral effect”, the IC50 (HIV-1 92UG029) was 1180 nM and the IC90 (HIV-1 92UG029) was 4670 nM. For the same compound, the VSV-Gpp infectivity remaining (VSV-Gpp [2]) was 0.1%, the “effect of fetal bovine serum on PD's antiviral activity” value (VSV-Gpp [2]) was “no inhibitory effect” and the “inhibition of VSV-Gpp supernatant infectivity relative to DMSO-treated virus” value (VSV-Gpp [2]) was about 1000 fold. For the same compound, the “sensitivity of virus to PD in conditioned medium” value (VSV-Gpp [2]) was “significantly less sensitive to inactivation by PD”, the HCVcc virion lysis (HCVcc [3]) was 27% and the “effect on infectivity of DenV” value [4] was “no significant inhibitory effect”. The IC50 (HIV-1 RU132; PD in DMEM + 10% FBS) was 700 nM, the IC50 (HIV-1 RU132; PD in cervical fluids) was 900 nM and the IC50 (HIV-1 RU132; PD in seminal plasma) was 740 nM. The IC90 (HIV-1 RU132; PD in DMEM + 10% FBS) was 3100 ± 200 nM, the IC90 (HIV-1 RU132; PD in cervical fluids) was 3900 ± 500 nM and the IC90 (HIV-1 RU132; PD in seminal plasma) was 3280 ± 220 nM. For the same compound, the IC50 (HIV-1 98IN022) was 400 nM, the IC90 (HIV-1 98IN022) was 1480 nM and the “DC-mediated transmission of HIV-1 to T cells” value [5] was “prevents subsequent T cell infection with the pseudotyped virus”. The “long-term stability (antiviral potency)” value (VSV-Gpp [6]; pH 4) was “retains full antiviral potency; also recorded: retains its full potency”, the long-term stability (VSV-Gpp [6]; pH 7) was “stable only at room temperature and 4 °C; also recorded: significantly compromised PD activity after 2 weeks” and the “stability in HEC gel” value (VSV-Gpp [6]; pH 7) was “not stable”. For the same compound, the “increase in IC50” value (VSV-Gpp, HIVpp) was 50-80 fold, the “antiviral effect, PD added after virus inoculation” value (HIV-1 (R5 JR-CSF); 10 μM PD, 1, 2, 4 and 8 h post treatment) was “loses its antiviral effect” and the “antiviral effect, extended preincubation of PD with cells” value (HIV-1 (R5 JR-CSF); 10 μM PD, >16 h prior to virus inoculation) was “significantly reduces the compound's antiviral efficacy”. The “antiviral effect, PD added together with the virus” value (HIV-1 (R5 JR-CSF); 10 μM PD, time zero) was “significantly inhibits HIV-1 infection”, the “antiviral effect, PD added before the virus” value (HIV-1 (R5 JR-CSF); 10 μM PD, up to 8 h before the addition of the virus) was “retains its full potency” and the “time antiviral activity is retained in cell culture prior to the addition of HIV-1” value (HIV-1 (R5 JR-CSF); cell culture at 37° C.) was “at least 8 hours”. The CC50 [7] was over 200000 nM, the cytotoxicity at 7 days, 200 μM [8] was 48% and the CC50 at 7 days ([8]; CC50, freshly activated PBMCs, uninfected plates, MTS assay, 7 days) was about 200000 nM. The IC50 (SIVmac251 32H) was 1100 nM, the IC90 (HIV-1 93BR029; PD in DMEM + 10% FBS) was 3500 ± 200 nM and the IC90 (HIV-1 93BR029; PD in cervical fluids) was 4600 ± 300 nM. For the same compound, the IC90 (HIV-1 93BR029; PD in seminal plasma) was 3720 ± 260 nM, the IC50 (HIV-1 93BR029; PD in DMEM + 10% FBS) was 700 nM and the IC50 (HIV-1 93BR029; PD in cervical fluids) was 1200 nM. The IC50 (HIV-1 93BR029; PD in seminal plasma) was 850 nM, the IC90 (HIV-1 93TH053; PD in DMEM + 10% FBS) was 5300 ± 300 nM and the IC90 (HIV-1 93TH053; PD in cervical fluids) was 6400 ± 400 nM. The IC90 (HIV-1 93TH053; PD in seminal plasma) was 6650 ± 480 nM, the IC50 (HIV-1 93TH053; PD in DMEM + 10% FBS) was 1400 nM and the IC50 (HIV-1 93TH053; PD in cervical fluids) was 1800 nM. The IC50 (HIV-1 93TH053; PD in seminal plasma) was 1670 nM, the “IC50 (DMEM; IC90 per footnote)” value (HIV-1 92TH006; PD in DMEM + 10% FBS) was 6600 ± 400 nM and the “IC50 (Cervical Fluid; IC90 per footnote)” value (HIV-1 92TH006; PD in cervical fluids) was 7600 ± 600 nM. The “IC50 (Seminal Plasma; IC90 per footnote)” value (HIV-1 92TH006; PD in seminal plasma) was 6730 ± 510 nM, the IC50 (HIV-1 92TH006; PD in DMEM + 10% FBS) was 1800 nM and the IC50 (HIV-1 92TH006; PD in cervical fluids) was 2300 nM. For the same compound, the IC50 (HIV-1 92TH006; PD in seminal plasma) was 1960 nM, the IC90 (HIV-1 93BR020; PD in DMEM + 10% FBS) was 6900 ± 400 nM and the IC90 (HIV-1 93BR020; PD in cervical fluids) was 7500 ± 400 nM. For the same compound, the IC90 (HIV-1 93BR020; PD in seminal plasma) was 7190 ± 620 nM, the IC50 (HIV-1 93BR020; PD in DMEM + 10% FBS) was 1400 nM and the IC50 (HIV-1 93BR020; PD in cervical fluids) was 1900 nM. The IC50 (HIV-1 93BR020; PD in seminal plasma) was 1610 nM, the “attachment of PD-treated HCVcc to cells” value (HCVcc [9]) was “binds to cells comparably to control DMSO-treated virus” and the IC90 (HIV-1 92RW021; PD in DMEM + 10% FBS) was 3800 ± 300 nM. The IC90 (HIV-1 92RW021; PD in cervical fluids) was 4400 ± 200 nM, the IC90 (HIV-1 92RW021; PD in seminal plasma) was 4620 ± 320 nM and the IC50 (HIV-1 92RW021; PD in DMEM + 10% FBS) was 430 nM. It also gave an IC50 (HIV-1 92RW021; PD in cervical fluids) of 670 nM and an IC50 (HIV-1 92RW021; PD in seminal plasma) of 580 nM.

— US20140227335A1 (priority 2012, published 2014)
